Data taken from the supplement of paper PMC11061612.

Legend:
MK-2206 = compound: NC1(c2ccc(-c3nc4ccn5c(=O)[nH]nc5c4cc3-c3ccccc3)cc2)CCC1 [MK-2206]; settings: max 10 µM
In short: (§1)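 Following 24 hours at 37°C and 5% CO2, cancer cell lines in 1536-well plates with 7.5 μl DMEM/F12 or RPMI and 10% FBS were dosed for 72 hours, final DMSO typically being 0.2%. CellTiter-Glo 2.0 luminescence, scaled between blank-well and DMSO-well means, gave the viability readout. Dose responses were fitted to a two-parameter logistic curve with a non-linear mixed effects model, and the single-agent IC50 was derived from this fit.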

AZD2811 = compound: CCN(CCO)CCCOc1ccc2c(Nc3cc(CC(=O)Nc4cccc(F)c4)[nH]n3)ncnc2c1 [AZD2811]; settings: max 1 µM
In short: as §1

AZD5991 = compound: Cc1c2c(nn1C)CSCc1cc(n(C)n1)CSc1cc(c3ccccc3c1)OCCCc1c(C(=O)O)n(C)c3c-2c(Cl)ccc13 [AZD5991]; settings: max 1 µM
In short: as §1

Gefitinib = compound: COc1cc2ncnc(Nc3ccc(F)c(Cl)c3)c2cc1OCCCN1CCOCC1 [Gefitinib]; settings: max 10 µM
In short: as §1

AZD5153 = compound: COc1nnc2ccc(N3CCC(c4ccc(OCCN5CCN(C)C(=O)[C@H]5C)cc4)CC3)nn12 [AZD5153]; settings: max 1 µM
In short: as §1

SN-38 = compound: CCc1c2c(nc3ccc(O)cc13)-c1cc3c(c(=O)n1C2)COC(=O)[C@]3(O)CC [SN-38]; settings: max 0.3 µM
In short: as §1

Lapatinib = compound: CS(=O)(=O)CCNCc1ccc(-c2ccc3ncnc(Nc4ccc(OCc5cccc(F)c5)c(Cl)c4)c3c2)o1 [Lapatinib]; settings: max 10 µM
In short: as §1

Prexasertib = compound: COc1cccc(OCCCN)c1-c1cc(Nc2cnc(C#N)cn2)n[nH]1 [Prexasertib]; settings: max 1 µM
In short: as §1

Doxorubicin = compound: COc1cccc2c1C(=O)c1c(O)c3c(c(O)c1C2=O)C[C@@](O)(C(=O)CO)C[C@@H]3O[C@H]1C[C@H](N)[C@H](O)[C@H](C)O1 [Doxorubicin]; settings: max 1 µM
In short: as §1

AZD7648 = compound: Cc1cc2ncnn2cc1Nc1ncc2c(n1)n(C1CCOCC1)c(=O)n2C [AZD7648]; settings: max 10 µM
In short: as §1

[1] = compound: O=C(Nc1ccc2[nH]nc(-c3ccncc3)c2c1)[C@@H]1CCN(CC(=O)N2CCN(c3ccc(-c4ncccn4)cc3)CC2)C1; settings: max 5 µM
In short: as §1

SRA737 = compound: N#Cc1cnc(Nc2cc(NC[C@H]3CNCCO3)c(C(F)(F)F)cn2)cn1 [SRA737]; settings: max 10 µM
In short: as §1

Gemcitabine = compound: Nc1ccn([C@@H]2O[C@H](CO)[C@@H](O)C2(F)F)c(=O)n1 [Gemcitabine]; settings: max 0.3 µM
In short: as §1

5-Fluorouracil = compound: O=c1[nH]cc(F)c(=O)[nH]1 [5-Fluorouracil]; settings: max 20 µM
In short: as §1

Venetoclax = compound: CC1(C)CCC(CN2CCN(c3ccc(C(=O)NS(=O)(=O)c4ccc(NCC5CCOCC5)c([N+](=O)[O-])c4)c(Oc4cnc5[nH]ccc5c4)c3)CC2)=C(c2ccc(Cl)cc2)C1 [Venetoclax]; settings: max 1 µM
In short: as §1

Dasatinib = compound: CC1=C(C(=CC=C1)Cl)NC(=O)C2=CN=C(S2)NC3=CC(=NC(=N3)C)N4CCN(CC4)CCO [Dasatinib]; settings: max 2 µM
In short: as §1

Crizotinib = compound: C[C@@H](Oc1cc(-c2cnn(C3CCNCC3)c2)cnc1N)c1c(Cl)ccc(F)c1Cl [Crizotinib]; settings: max 10 µM
In short: as §1

Paclitaxel = compound: CC(=O)O[C@H]1C(=O)[C@@]2(C)[C@H]([C@H](OC(=O)c3ccccc3)[C@]3(O)C[C@H](OC(=O)[C@H](O)[C@@H](NC(=O)c4ccccc4)c4ccccc4)C(C)=C1C3(C)C)[C@]1(OC(C)=O)CO[C@@H]1C[C@@H]2O [Paclitaxel]; settings: max 3 µM
In short: as §1

AZD6738 = compound: C[C@@H]1COCCN1C2=NC(=NC(=C2)C3(CC3)[S@](=N)(=O)C)C4=C5C=CNC5=NC=C4 [AZD6738]; settings: max 10 µM
In short: as §1

Taselisib = compound: Cc1nc(-c2cn3c(n2)-c2ccc(-c4cnn(C(C)(C)C(N)=O)c4)cc2OCC3)n(C(C)C)n1 [Taselisib]; settings: max 10 µM
In short: as §1

Etoposide = compound: COc1cc([C@@H]2c3cc4c(cc3[C@@H](O[C@@H]3O[C@@H]5CO[C@@H](C)O[C@H]5[C@H](O)[C@H]3O)[C@H]3COC(=O)[C@H]23)OCO4)cc(OC)c1O [Etoposide]; settings: max 10 µM
In short: as §1

AZD4320 = compound: CN(CC[C@H](CSC1=CC=CC=C1)NC2=C(C=C(C=C2)S(=O)(=O)NC(=O)C3=CC=C(C=C3)N4CCC(CC4)[C@H](C5=CC=CC=C5C6=CC=C(C=C6)Cl)O)S(=O)(=O)C(F)(F)F)CCO [AZD4320]; settings: max 1 µM
In short: as §1

AZD0156 = compound: CN(C)CCCOc1ccc(-c2ccc3ncc4c(c3c2)n(C2CCOCC2)c(=O)n4C)cn1 [AZD0156]; settings: max 3 µM
In short: as §1

Savolitinib = compound: C[C@@H](c1ccc2nccn2c1)n1nnc2ncc(-c3cnn(C)c3)nc21 [Savolitinib]; settings: max 1 µM
In short: as §1

Selumetinib = compound: Cn1cnc2c(F)c(Nc3ccc(Br)cc3Cl)c(C(=O)NOCCO)cc21 [Selumetinib]; settings: max 10 µM
In short: as §1

AZD5363 = compound: C1CN(CCC1(C(=O)N[C@@H](CCO)C2=CC=C(C=C2)Cl)N)C3=NC=NC4=C3C=CN4 [AZD5363]; settings: max 10 µM
In short: as §1

Alisertib = compound: COc1cc(Nc2ncc3c(n2)-c2ccc(Cl)cc2C(c2c(F)cccc2OC)=NC3)ccc1C(=O)O [Alisertib]; settings: max 10 µM
In short: as §1

SG3199 = compound: CC1=CN2[C@@H](C1)C=NC3=CC(=C(C=C3C2=O)OC)OCCCCCOC4=C(C=C5C(=C4)N=C[C@@H]6CC(=CN6C5=O)C)OC [SG3199]; settings: max 0.001 µM
In short: as §1

AZD1390 = compound: CC(C)n1c(=O)n(C)c2cnc3cc(F)c(-c4ccc(OCCCN5CCCCC5)nc4)cc3c21 [AZD1390]; settings: max 0.3 µM
In short: as §1

Trametinib = compound: CC(=O)Nc1cccc(-n2c(=O)n(C3CC3)c(=O)c3c(Nc4ccc(I)cc4F)n(C)c(=O)c(C)c32)c1 [Trametinib]; settings: max 1 µM
In short: as §1

Palbociclib = compound: CC(=O)c1c(C)c2cnc(Nc3ccc(N4CCNCC4)cn3)nc2n(C2CCCC2)c1=O [Palbociclib]; settings: max 10 µM
In short: as §1

AZD8186 = compound: C[C@@H](Nc1cc(F)cc(F)c1)c1cc(C(=O)N(C)C)cc2c(=O)cc(N3CCOCC3)oc12 [AZD8186]; settings: max 10 µM
In short: as §1

Carboplatin = compound: C1CC(C1)(C(=O)[O-])C(=O)[O-].N.N.[Pt+2] [Carboplatin]; settings: max 10 µM
In short: as §1

AZD1775 = compound: C=CCn1c(=O)c2cnc(Nc3ccc(N4CCN(C)CC4)cc3)nc2n1-c1cccc(C(C)(C)O)n1 [AZD1775]; settings: max 3 µM
In short: as §1

Olaparib = compound: O=C(c1cc(Cc2n[nH]c(=O)c3ccccc23)ccc1F)N1CCN(C(=O)C2CC2)CC1 [Olaparib]; settings: max 10 µM
In short: as §1

Cell Line | IC50, cell viability 72 h (MK-2206) | IC50, cell viability 72 h (AZD2811) | IC50, cell viability 72 h (AZD5991) | IC50, cell viability 72 h (Gefitinib) | IC50, cell viability 72 h (AZD5153) | IC50, cell viability 72 h (SN-38) | IC50, cell viability 72 h (Lapatinib) | IC50, cell viability 72 h (Prexasertib) | IC50, cell viability 72 h (Doxorubicin) | IC50, cell viability 72 h (AZD7648) | IC50, cell viability 72 h [1] | IC50, cell viability 72 h (SRA737) | IC50, cell viability 72 h (Gemcitabine) | IC50, cell viability 72 h (5-Fluorouracil) | IC50, cell viability 72 h (Venetoclax) | IC50, cell viability 72 h (Dasatinib) | IC50, cell viability 72 h (Crizotinib) | IC50, cell viability 72 h (Paclitaxel) | IC50, cell viability 72 h (AZD6738) | IC50, cell viability 72 h (Taselisib) | IC50, cell viability 72 h (Etoposide) | IC50, cell viability 72 h (AZD4320) | IC50, cell viability 72 h (AZD0156) | IC50, cell viability 72 h (Savolitinib) | IC50, cell viability 72 h (Selumetinib) | IC50, cell viability 72 h (AZD5363) | IC50, cell viability 72 h (Alisertib) | IC50, cell viability 72 h (SG3199) | IC50, cell viability 72 h (AZD1390) | IC50, cell viability 72 h (Trametinib) | IC50, cell viability 72 h (Palbociclib) | IC50, cell viability 72 h (AZD8186) | IC50, cell viability 72 h (Carboplatin) | IC50, cell viability 72 h (AZD1775) | IC50, cell viability 72 h (Olaparib)
Becker (Low Grade Glioma) | > 10 µM | > 1 µM | > 1 µM | > 10 µM | > 1 µM | 0.0285 µM | > 10 µM | 0.0941 µM | > 1 µM | > 10 µM | > 5 µM | > 10 µM | > 0.3 µM | > 20 µM | > 1 µM | > 2 µM | > 10 µM | 0.00648 µM | > 10 µM | 3.43 µM | > 10 µM | > 1 µM | > 3 µM | > 1 µM | > 10 µM | > 10 µM | > 10 µM | > 0.001 µM | > 0.3 µM | > 1 µM | > 10 µM | 3.9 µM | > 10 µM | > 3 µM | > 10 µM
CHL-1 (Melanoma) | > 10 µM | > 1 µM | > 1 µM | > 10 µM | 0.594 µM | 0.143 µM | 9.96 µM | 0.0768 µM | > 1 µM | > 10 µM | > 5 µM | > 10 µM | 0.218 µM | > 20 µM | > 1 µM | > 2 µM | > 10 µM | 0.0192 µM | 2.73 µM | 8.26 µM | 8.95 µM | > 1 µM | > 3 µM | > 1 µM | > 10 µM | > 10 µM | > 10 µM | > 0.001 µM | > 0.3 µM | > 1 µM | > 10 µM | > 10 µM | > 10 µM | 1.68 µM | > 10 µM
